In patent US9096565B2, “Inhibitors of histone deacetylase” (MethylGene Inc., priority 2007, dated 2015) one finds IC50 data, which are given here for 44 molecules.

For this assay, the target named is one or more of HDAC-4, HDAC-5, HDAC-6, HDAC-7, HDAC-8, HDAC-9, HDAC-10 and HDAC-11. The experiment in a line: Inhibition of histone deacetylase enzymatic activity (summary statement over isoforms). Type of assay: biochemical. Particulars: Table 3, selected examples; HDAC isoform not given. Here is the method: The following protocol is used to assay the compounds of the invention.
The mixture is pre-incubated for 5 minutes at room temperature. The reaction is started by bringing the temperature to 37° C. and adding 15 μL substrate. Total reaction volume is 50 μL.
A 30 mM stock of Boc-Lys(trifluoroacetyl)-AMC substrate is prepared in DMSO. […] Reaction is started by adding 18 μL Boc-Lys(trifluoroacetyl)-AMC substrate and incubating at 37° C. for 20-30 minutes. The reaction is stopped by adding 50 μL trypsin (1 mg/mL) and a known HDAC inhibitor.
By IC50 is commonly meant the midpoint of a concentration-inhibition curve. As for `O=C(NO)C(c1ccccc1)c1ccc(N2CCCC2)cc1` (centres unmarked) [Compound 1-41, N-hydroxy-2-phenyl-2-(4-(pyrrolidin-1-yl)phenyl)acetamide], the 50% inhibitory concentration (IC50) was less than 1000 nM.

In turn, `CCc1ccc(-c2cccc(C(C(=O)NO)c3ccccc3)c2)cc1` (centres unmarked) [Compound 2-102, 2-(4′-ethylbiphenyl-3-yl)-N-hydroxy-2-phenylacetamide] displayed an IC50 of less than 1000 nM.

Regarding `O=C(NO)C(Sc1ccnc2cc(C(F)(F)F)ccc12)c1ccccc1` (centres unmarked) [Compound 2-49, N-hydroxy-2-phenyl-2-(7-(trifluoromethyl)quinolin-4-ylthio)acetamide], the IC50 was less than 1000 nM.

As to `O=C(NO)C(c1ccccc1)c1ccc(-c2cccc3ccccc23)cc1` (centres unmarked) [Compound 5-13, N-hydroxy-2-(4-(naphthalen-1-yl)phenyl)-2-phenylacetamide], the IC50 was less than 1000 nM.

The molecule `O=C(NO)C(c1ccccc1)c1nnc(COc2ccccc2)s1` (centres unmarked) [Compound 5-53, N-hydroxy-2-(5-(phenoxymethyl)-1,3,4-thiadiazol-2-yl)-2-phenylacetamide] registered an IC50 of less than 1000 nM.

For `O=C(NO)C(Sc1ccc(-c2ccccc2)cc1)c1ccccc1` (centres unmarked) [Compound 1-46, 2-(biphenyl-4-ylthio)-N-hydroxy-2-phenylacetamide], the 50% inhibitory concentration (IC50) was less than 1000 nM.

Consider `O=C(NO)C(c1ccccc1)c1ccc(OCCOc2ccc(F)cc2)cc1` (centres unmarked) [Compound 3-69, 2-(4-(2-(4-fluorophenoxy)ethoxy)phenyl)-N-hydroxy-2-phenylacetamide], for which the IC50 was less than 1000 nM.

Take `CN(C)CCN1CCN(c2ccc(C(C(=O)NO)c3ccccc3)cc2)CC1` (centres unmarked) [Compound 5-94, 2-(4-(4-(2-(dimethylamino)ethyl)piperazin-1-yl)phenyl)-N-hydroxy-2-phenylacetamide]: the IC50 was less than 1000 nM.

`O=C(NO)C(c1ccccc1)c1ccc(-c2ccc(Cl)cc2)cc1` (centres unmarked) [Compound 2-112, 2-(4′-chlorobiphenyl-4-yl)-N-hydroxy-2-phenylacetamide] returned a half-inhibitory concentration (IC50) of less than 1000 nM.

Molecule `O=C(NO)C(c1ccccc1)c1nnc(C2c3ccccc3Oc3ccccc32)s1` (centres unmarked) [Compound 5-64, 2-(5-(9H-xanthen-9-yl)-1,3,4-thiadiazol-2-yl)-N-hydroxy-2-phenylacetamide] registered an IC50 of less than 1000 nM.

Molecule `O=C(NO)C(c1ccccc1)c1ccc(C#Cc2cccnc2)cc1` (centres unmarked) [Compound 5-63, N-hydroxy-2-phenyl-2-(4-(pyridin-3-ylethynyl)phenyl)acetamide] gave an IC50 of less than 1000 nM.

Consider `O=C(Nc1cccc(C(C(=O)NO)c2ccccc2)c1)c1ccc(F)cc1` (centres unmarked) [Compound 2-62, 4-fluoro-N-(3-(2-(hydroxyamino)-2-oxo-1-phenylethyl)phenyl)benzamide], for which the IC50 is less than 1000 nM.

Consider `CN(C)CCCOc1ccc(C(C(=O)NO)c2ccccc2)cc1` (centres unmarked) [Compound 3-16, 2-(4-(3-(dimethylamino)propoxy)phenyl)-N-hydroxy-2-phenylacetamide], for which the IC50 is less than 1000 nM.

On to `O=C(NO)C(c1ccccc1)c1cccc(N2CCN(Cc3ccncc3)CC2)c1` (centres unmarked) [Compound 3-12, N-hydroxy-2-phenyl-2-(3-(4-(pyridin-4-ylmethyl)piperazin-1-yl)phenyl)acetamide], for which the IC50 is less than 1000 nM.

For `CCC(=O)ONC(=O)C(c1ccccc1)c1ccc(N2CCOCC2)cc1` (centres unmarked) [Compound 5-114, 2-(4-morpholinophenyl)-2-phenyl-N-(propionyloxy)acetamide], the IC50 fell in the range of 1000 to 15000 nM.

`COCCN1CCN(c2ccc(C(C(=O)NO)c3ccccc3)cc2)CC1` (centres unmarked) [Compound 5-100, N-hydroxy-2-(4-(4-(2-methoxyethyl)piperazin-1-yl)phenyl)-2-phenylacetamide] had an IC50 of less than 1000 nM.

Consider `O=C(NO)C(Sc1nc(-c2ccccc2)c(-c2ccccc2)[nH]1)c1ccccc1` (centres unmarked) [Compound 1-42, 2-(4,5-diphenyl-1H-imidazol-2-ylthio)-N-hydroxy-2-phenylacetamide], for which the IC50 lay within 1000 to 15000 nM.

As for `O=C(NO)C(c1ccccc1)N1CCN(Cc2ccccc2)CC1` (centres unmarked) [Compound 1-17, 2-(4-benzylpiperazin-1-yl)-N-hydroxy-2-phenylacetamide], the IC50 was 1000 to 15000 nM.

In the case of `O=C(NO)C(c1ccccc1)c1ccc(C#Cc2ccccc2)cc1` (centres unmarked) [Compound 2-97, N-hydroxy-2-phenyl-2-(4-(phenylethynyl)phenyl)acetamide], the half-maximal inhibitory concentration (IC50) is less than 1000 nM.

As to `CCCc1cccc(C(C(=O)NO)c2ccccc2)c1` (centres unmarked) [Compound 2-101, N-hydroxy-2-phenyl-2-(3-propylphenyl)acetamide], the IC50 was less than 1000 nM.

`O=C(NO)C(c1ccccc1)c1cccc(OCC2CC2)c1` (centres unmarked) [Compound 3-25, 2-(3-(cyclopropylmethoxy)phenyl)-N-hydroxy-2-phenylacetamide]: the 50% inhibitory concentration (IC50) lay in the range of 1000 to 15000 nM.

Molecule `O=C(NO)C(c1ccccc1)c1ccc(N2C[C@@H]3C[C@H]2CO3)cc1` (stereo partly drawn) [Compound 5-78, 2-(4-((1S,4S)-2-oxa-5-azabicyclo[2.2.1]heptan-5-yl)phenyl)-N-hydroxy-2-phenylacetamide] yielded a 50% inhibitory concentration (IC50) of less than 1000 nM.

On to `O=C(NO)C(c1ccccc1)c1ccc(-n2ccc3ccccc32)cc1` (centres unmarked) [Compound 5-81, 2-(4-(1H-indol-1-yl)phenyl)-N-hydroxy-2-phenylacetamide], for which the 50% inhibitory concentration (IC50) was less than 1000 nM.

`O=C(Nc1ccc(C(C(=O)NO)c2ccccc2)cc1)c1cccc(Cl)c1` (centres unmarked) [Compound 2-72, 3-chloro-N-(4-(2-(hydroxyamino)-2-oxo-1-phenylethyl)phenyl)benzamide]: the concentration for half-maximal inhibition (IC50) was less than 1000 nM.

On to `C=CCCOc1cccc(C(C(=O)NO)c2ccccc2)c1` (centres unmarked) [Compound 3-26, 2-(3-(but-3-enyloxy)phenyl)-N-hydroxy-2-phenylacetamide], for which the half-maximal inhibitory concentration (IC50) fell in the range of 1000 to 15000 nM.

In the case of `O=C(NO)C(c1ccccc1)N1CCN(C(=O)Cc2ccccc2)CC1` (centres unmarked) [Compound 2-28, N-hydroxy-2-phenyl-2-(4-(2-phenylacetyl)piperazin-1-yl)acetamide], the IC50 is 1000 to 15000 nM.

The molecule `C=CCOc1ccc(C(C(=O)NO)c2ccccc2)cc1` (centres unmarked) [Compound 3-46, 2-(4-(allyloxy)phenyl)-N-hydroxy-2-phenylacetamide] returned an IC50 of less than 1000 nM.

In turn, `COc1ccc(OC(C(=O)NO)c2ccccc2)cc1OC` (centres unmarked) [Compound 7-42, 2-(3,4-dimethoxyphenoxy)-N-hydroxy-2-phenylacetamide] displayed a concentration for half-maximal inhibition (IC50) of 1000 to 15000 nM.

`O=C(NO)C(Sc1cccc(O)c1)c1ccccc1` (centres unmarked) [Compound 6-38, N-hydroxy-2-(3-hydroxyphenylthio)-2-phenylacetamide]: the IC50 lay within 1000 to 15000 nM.

As for `O=CN(O)C(c1ccccc1)c1ccc(OCc2ccccc2)cc1` (centres unmarked) [Compound 5-98, N-((4-(benzyloxy)phenyl)(phenyl)methyl)-N-hydroxyformamide], the IC50 was in the range of 1000 to 15000 nM.

`O=C(NO)C(c1ccccc1)c1ccc(N2C[C@@H]3C[C@]3(c3ccc(Cl)c(Cl)c3)C2)cc1` (stereo partly drawn) [Compound 6-16, 2-(4-((1S,5R)-1-(3,4-dichlorophenyl)-3-azabicyclo[3.1.0]hexan-3-yl)phenyl)-N-hydroxy-2-phenylacetamide]: the IC50 was less than 1000 nM.

`CC(C)CCNc1ccc(C(C(=O)NO)c2ccccc2)cc1` (centres unmarked) [Compound 2-77, N-hydroxy-2-(4-(isopentylamino)phenyl)-2-phenylacetamide] came in with a 50% inhibitory concentration (IC50) of less than 1000 nM.

For `O=C(NO)C(c1ccccc1)N1CCN(c2ccccn2)CC1` (centres unmarked) [Compound 5-73, N-hydroxy-2-phenyl-2-(4-(pyridin-2-yl)piperazin-1-yl)acetamide], the IC50 is less than 1000 nM.

`O=C(NO)C(Sc1ccccc1)c1ccc(-c2ccncc2)cc1` (centres unmarked) [Compound 5-116, N-hydroxy-2-(phenylthio)-2-(4-(pyridin-4-yl)phenyl)acetamide] showed a half-inhibitory concentration (IC50) of less than 1000 nM.

`O=C(Nc1ccc(C(C(=O)NO)c2ccccc2)cc1)c1ccccc1` (centres unmarked) [Compound 2-55, N-(4-(2-(hydroxyamino)-2-oxo-1-phenylethyl)phenyl)benzamide] gave an IC50 of less than 1000 nM.

As for `CC(=O)N1CCN(c2ccc(C(C(=O)NO)c3ccccc3)cc2)CC1` (centres unmarked) [Compound 3-82, 2-(4-(4-acetylpiperazin-1-yl)phenyl)-N-hydroxy-2-phenylacetamide], the IC50 was less than 1000 nM.

On to `O=C(NO)C(c1ccccc1)c1cccc(C#Cc2cccnc2)c1` (centres unmarked) [Compound 2-95, N-hydroxy-2-phenyl-2-(3-(pyridin-3-ylethynyl)phenyl)acetamide], for which the IC50 was less than 1000 nM.

`O=C(NO)C(c1ccccc1)c1cccc(OCCCc2ccccc2)c1` (centres unmarked) [Compound 3-36, N-hydroxy-2-phenyl-2-(3-(3-phenylpropoxy)phenyl)acetamide] yielded an IC50 of less than 1000 nM.

Molecule `O=C(NO)C(c1ccccc1)c1ccc(OCc2cccc(C(F)(F)F)c2)cc1` (centres unmarked) [Compound 3-71, N-hydroxy-2-phenyl-2-(4-(3-(trifluoromethyl)benzyloxy)phenyl)acetamide] showed an IC50 of less than 1000 nM.

Take `CCSc1ccc(-c2cccc(C(C(=O)NO)c3ccccc3)c2)cc1` (centres unmarked) [Compound 2-107, 2-(4′-(ethylthio)biphenyl-3-yl)-N-hydroxy-2-phenylacetamide]: the half-maximal inhibitory concentration (IC50) is less than 1000 nM.

Turning to `Nc1ccccc1NC(=O)c1ccc(C(C(=O)NO)c2ccccc2)cc1` (centres unmarked) [Compound 5-108, N-(2-aminophenyl)-4-(2-(hydroxyamino)-2-oxo-1-phenylethyl)benzamide], the concentration for half-maximal inhibition (IC50) was less than 1000 nM.

As to `O=C(NO)C(c1ccccc1)c1cccc(NCc2ccc(F)cc2)c1` (centres unmarked) [Compound 2-50, 2-(3-(4-fluorobenzylamino)phenyl)-N-hydroxy-2-phenylacetamide], the IC50 was less than 1000 nM.

`O=C(NO)C(Cc1ccccc1)c1ccccc1` (centres unmarked) [Compound 1-11, N-hydroxy-2,3-diphenylpropanamide] yielded a half-inhibitory concentration (IC50) of 1000 to 15000 nM.

Turning to `CC(C)=CCOc1cccc(C(C(=O)NO)c2ccccc2)c1` (centres unmarked) [Compound 3-5, N-hydroxy-2-(3-(3-methylbut-2-enyloxy)phenyl)-2-phenylacetamide], the IC50 was less than 1000 nM.
